Values quoted from earlier work, collected in US8802142B2, “Pharmaceutical compositions comprising levetiracetam and process for their preparation” (UCB Pharma, S.A., priority 2005, dated 2014).

Conditions: A. J. Gower et al., Eur. J. Pharmacol., 222, 1992, 193-203

Row | Compound | activity in the treatment of epilepsy
1 | (R)-(−)-α-ethyl-2-oxo-1-pyrrolidine acetamide | completely lacks activity
2 | CC[C@@H](C(N)=O)N1CCCC1=O [Levetiracetam, (S)-(−)-α-ethyl-2-oxo-1-pyrrolidine acetamide] | effective
